Laboratory results as given in patent publication US20020132845A1, “Compositions and methods for the prevention and treatment of tissue ischemia” (priority 2000, published 2002).

What was measured:
[1] = system: primary neonate myocytes (cardiomyocytes); test: Isolated heart cell (myocyte) preparation model of myocardial cell ischemia (Example 4); type: cell-based, rat; conditions: 37-111 micromolar
Source text: Two-day old rat pups are removed from their mothers and placed in a sterile container. Pups are dipped quickly into 70% alcohol, then decapitated and the body is placed in an empty sterile tissue culture dish. An incision is made starting at the neck and progressing towards the belly, cutting through the sternum. The heart is removed and placed in a tissue culture dishes containing 1×HDS. The atria are trimmed, and the remaining ventricles are placed into a separate tissue culture dish containing 1×HDS, where they are sectioned into 3-4 pieces each. Ventricles are then transferred to a sterile 250 ml glass flask and the 1×HDS is removed. Twenty milliliters of pre-warmed collagenase solution are added to the ventricles, followed by incubation at 37° C. with shaking. After 30 minutes, the collagenase solution is removed and replaced with 20 ml fresh pre-warmed collagenase. Incubation is continued for an additional 30 minutes. At the end of the incubation, any tissue chunks are allowed to settle prior to removing the collagenase (containing the isolated cardiomyocytes) from the disrupted tissue pieces. The isolated myocytes are added to a 50 ml Falcon tube containing 2 ml Fetal Bovine Serum (FBS). […]
A small aliquot of the cell suspension is counted in a hemocytometer. […]

[2] = system: myocardial infarction by left coronary artery occlusion; test: Model of myocardial infarction: left coronary ligation (Example 5); type: in vivo, rat; conditions: dose of 0.67 mg/kg
Description: Male Sprague-Dawley weighing 250-320 g are allowed free access to water and commercial rodent diet under standard laboratory conditions. Room temperature is maintained at 20-23° C. and room illumination is on a 12/12-hour light/dark cycle. Animals are acclimatized to the laboratory environment 5 to 7 days prior to the study and are fasted overnight prior to surgery.
Rats are anaesthetized with Urethane (1.2-1.5 gm/kg). Core body temperature is maintained at 37° C. by using a heating blanket. The surgical area is shaved, and a ventral midline incision is made to expose the trachea and jugular area. A catheter (PE50) is placed in the jugular for administration of compound and maintenance anesthesia. The trachea is incised and a 14-16-gauge modified intravenous catheter is inserted and tied in place as an endotracheal tube. The animal is placed in right lateral recumbency and initially placed on a Harvard ventilator with a tidal volume of 5-10 ml/kg. 100% O2 is delivered to the animals by the ventilator. ECG electrodes are placed to record a standard Lead II ECG. The surgical site is cleaned with alcohol swab, and a skin incision is made over rib cage over the 4th-5th intercostal space. […] The ECG is monitored for S-T changes indicative of ischemia. […] The ECG is monitored for the first 10 minutes of reperfusion. […]

## bromo-quercetin
[1]
  preventing or reducing myocardial damage: effective
[2]
  infarct size: reduce infarct size
